Patent publication US20050070594A1, “Use of angiotensin II receptor antagonists” (Boehringer Ingelheim International GmbH, priority 2003, published 2005)

Assays:
[1] = molecular target: T1, human PPARgamma-ligand binding domain (LBD) (Homo sapiens, UniProt P37231); experiment: AlphaScreen: recruiting of biotinylated LXXLL peptide of cofactor CBP to GST-PPARgamma-LBD; assay type: biochemical
T1 construct: codes for the amino acids 205-505 of the human PPARgamma2 transcription factor; made in house; host or cells: E. coli BL21(DE3), vector pGEX-4T-1
T1 sequence (P37231 205-505): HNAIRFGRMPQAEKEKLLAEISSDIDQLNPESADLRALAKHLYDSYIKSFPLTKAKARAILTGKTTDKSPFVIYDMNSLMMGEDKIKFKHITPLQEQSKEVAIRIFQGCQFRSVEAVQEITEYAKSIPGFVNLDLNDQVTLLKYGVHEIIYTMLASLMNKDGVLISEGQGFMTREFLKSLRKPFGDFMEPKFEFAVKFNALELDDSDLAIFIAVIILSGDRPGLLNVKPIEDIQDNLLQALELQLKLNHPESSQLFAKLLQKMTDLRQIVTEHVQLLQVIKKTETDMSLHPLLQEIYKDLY
Procedure: Protein containing the human PPARgamma-ligand binding domain (LBD) is prepared as a GST fusion protein in E.coli and purified by affinity chromatography. […] The fusion protein is expressed in the E.coli strain BL21(DE3) recommended for pGEX vectors after induction with 0.2 mM IPTG for 4 hours at 25° C. The bacteria are pelleted after the induction and frozen in batches in PBS, pH 7.4. After opening up in a French Press, the dissolved GST-PPARgamma-LBD-fusion protein is purified using a GSTrap column (Pharmacia). Elution is carried out by the addition of 20 mM reduced glutathione.
The GST-PPARgamma-LBD-protein fractions are desalinated using a HiTrap desalting column (Pharmacia) and the protein concentration is determined using a standard assay.
The assay buffer consists of 25 mM Hepes pH7.4, 100 mM NaCl,1 mM DTT, 0.1% Tween-20, 0.1% BSA. […] The final DMSO concentration in the assay is 1% (v/v). A 1% DMSO solution is used as the background control (NSB). The measurement is done using a Packard fusion measuring device.

[2] = molecular target: T2, human PPARgamma-ligand binding domain (LBD) (Homo sapiens, UniProt P37231); experiment: SPA assay: displacement of 3H-labelled rosiglitazone from GST-PPARgamma-LBD; details: NSB 217, Bmax 911
T2 sequence (P37231 205-505): T1 sequence (P37231 205-505)
T2 sequence (P19793 220-461 partner limits assumed): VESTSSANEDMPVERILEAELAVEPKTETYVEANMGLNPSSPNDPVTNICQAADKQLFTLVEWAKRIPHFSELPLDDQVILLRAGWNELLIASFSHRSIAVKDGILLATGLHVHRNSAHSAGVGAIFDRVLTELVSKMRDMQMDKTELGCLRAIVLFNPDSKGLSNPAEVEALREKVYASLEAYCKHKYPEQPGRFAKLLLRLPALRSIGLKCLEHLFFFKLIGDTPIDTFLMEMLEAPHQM
Procedure: Protein containing the human PPARgamma-ligand binding domain (LBD) is prepared as a GST fusion protein in E.coli and purified by affinity chromatography. To do this, a DNA section which codes for the amino acids 205-505 of the human PPARgamma2 transcription factor (cf. Genbank entry U79012) is subcloned via the additionally introduced restriction cutting sites BamH I and Xho I into the expression vector pGEX-4T-1 (Amersham) and the sequence of the section is monitored. […] The bacteria are pelleted after the induction and frozen in batches in PBS, pH 7.4. After opening up in a French Press, the dissolved GST-PPARgamma-LBD-fusion protein is purified using a GSTrap column (Pharmacia). Elution is carried out by the addition of 20 mM reduced glutathione. The GST-PPARgamma-LBD-protein fractions are desalinated using a HiTrap desalting column (Pharmacia) and the protein concentration is determined using a standard assay. Protein containing the human RXRalpha ligand binding domain (LBD) is prepared as a His tag fusion protein in E.coli and purified by affinity chromatography. To do this a DNA section which codes for the amino acids 220-461 of the human RXRalpha transcription factor (cf. Genbank entry NM_002957, nt 729-1457) is subcloned via the additionally introduced restriction cutting sites BamH I and Not I into the expression vector pET28c (Novagen) and the sequence of the section is monitored. […] The bacteria are pelleted after the expression and frozen in batches in PBS, pH 7.4. After opening up in a French Press, the dissolved His-RXRalpha-LBD-fusion protein is purified using a HiTrap chelating column (Pharmacia). Elution is carried out using a 500 mM imidazole step. The His-RXRalpha-LBD protein fractions are desalinated using a HiTrap desalting column (Pharmacia) and the protein concentration is determined using a standard assay. A description of the SPA assay format can be found in Mukheriee R et al., J Steroid Biochem Mol Biol (2002) 81:217-225.

3T3-L1 adipocytes = experiment: Lipid accumulation and differentiation of 3T3-L1 adipocytes (Oil Red-O staining); assay type: cell-based, mouse
Text: (§1) 3T3-L1 mouse preadipocytes are cultivated in DMEM (Dulbecco's modified eagle medium) with 10% foetal calf serum (FBS). PC12W cells are cultivated in DMEM with 5% FBS and 10% equine serum. In both cases the media contain 1% penicillin/streptomycin.
(§2) The differentiation of adipocytes is induced 2-3 days after cell confluence by adding a differentiating solution. This contains • 1 μmol/L of dexamethasone, • 0.5 mmol/L of 3-isobutyl-1-methylxanthine, • 1.67 μmol/L of insulin, and • 10% FBS.
(§3) Then the cells are stimulated for another 48 hours before finally being analysed (day 4).
Cells are washed with PBS and fixed with a 3.7% formaldehyde solution for 2 minutes. After fixing, the cells are stained for 1 hour at ambient temperature with a 0.5% stock solution of Oil Red-O in isopropanol diluted 3:2 with water. After washing, the cells are examined under a light microscope.

[3] = test system: Adipose Protein 2 (aP2) expression; experiment: Stimulation of aP2 expression in 3T3-L1 cells (real time PCR); assay type: cell-based, mouse; details: 10 μmol/L
Text: as §1, §2, §3
RNA isolation, reverse transcription and quantification of gene expression are carried out using an ABI 7000 sequence detection system-for real time PCR (described in Janke et al, Diabetes 51:1699-707, 2002). The endogenous control used for the real time PCR consists of the household genes 18S rRNA and hypoxanthine guanine phosphoribosyl transferase (hprt).

In the case of `CCCc1nc2c(C)cc(-c3nc4ccccc4n3C)cc2n1Cc1ccc(-c2ccccc2C(=O)O)cc1` [telmisartan], the “AlphaScreen signal (MW)” value ([1]; 1.00E−05 M test substance) is reported as 847, the “AlphaScreen signal (MW)” value ([1]; 1.00E−06 M test substance) is reported as 677 and the “AlphaScreen signal (MW)” value ([1]; 1.00E−07 M test substance) is reported as 606. The “AlphaScreen signal (MW)” value ([1]; 3.00E−06 M test substance) was 720, the “AlphaScreen signal (MW)” value ([1]; 3.00E−07 M test substance) was 644 and the “AlphaScreen signal (MW)” value ([1]; 3.00E−08 M test substance) was 642. For the same compound, the “AlphaScreen signal (MW)” value ([1]; 5.00E−05 M test substance) was 1111, the “direct activation of the PPARgamma-LBD / recruiting of the LXXLL peptide” value ([1]; concentrations of up to 50 μM) was “does not result in any direct activation” and the “SPA signal, bound 3H-rosiglitazone (MW)” value ([2]; 1.00E−04 M test substance) was 545. The “SPA signal, bound 3H-rosiglitazone (MW)” value ([2]; 1.00E−05 M test substance) was 703, the “SPA signal, bound 3H-rosiglitazone (MW)” value ([2]; 1.00E−06 M test substance) was 818 and the “SPA signal, bound 3H-rosiglitazone (MW)” value ([2]; 1.00E−07 M test substance) was 837. For the same compound, the “SPA signal, bound 3H-rosiglitazone (MW)” value ([2]; 3.00E−05 M test substance) was 691, the “SPA signal, bound 3H-rosiglitazone (MW)” value ([2]; 3.00E−06 M test substance) was 818 and the “SPA signal, bound 3H-rosiglitazone (MW)” value ([2]; 3.00E−07 M test substance) was 802. For the same compound, the “differentiation of 3T3-L1 adipocytes” value (3T3-L1 adipocytes) was “promoted”, the “accumulation of lipids (Oil Red-O staining)” value (3T3-L1 adipocytes; 10 μmol/L, day 4) was “increased accumulation of lipids” and the “stimulation of aP2 expression, factor” value [3] was 3.1±0.3.
